Measurements: patent US20120059036A1, “METHOD FOR REDUCING THROMBOCYTOPENIA AND THROMBOCYTOPENIA-ASSOCIATED MORTALITY” (priority 2008, published 2012)

Tested on: patients experiencing ST-segment elevation myocardial infarction (STEMI)
Experiment: […] Phase III study: clinical outcomes (death, reinfarction, revascularization, stent thrombosis) at 30 days and 8 months
Assay type: in vivo, human
Description: The inclusion criteria were (1) chest pain for longer than 30 minutes with an electrocardiographic ST-segment elevation of 1 mm or greater in two or more contiguous electrocardiogram leads, or with a new left bundle-branch block, and (2) admission either within 12 hours of symptom onset or between 12 and 24 hours after onset with evidence of continuing ischemia. The exclusion criteria included administration of fibrinolytics in the previous 30 days, major surgery within 15 days, and active bleeding or previous stroke in the last six months. Immediately after eligibility criteria were met and before the visualization of coronary arteries through angiography, the treating physician at each investigational site performed open-label assignments of study treatments via sealed envelopes.
This type of regimen is described in U.S. Pat. No. 6,770,660. Abciximab was administered in a 0.25 mg/kg bolus, followed by 0.125 μg/kg/min continuous infusion for 12 hours. The administration of both drugs began at first medical contact, before arterial sheath insertion. Heparin was given at 40 to 70 U/kg, targeting an activated clotting time of at least 200 seconds. Patients received aspirin (160-325 mg orally or 250 mg intravenously, followed by 80-125 mg/d orally indefinitely) and clopidogrel (300 mg orally and then 75 mg/d for at least three months).
A 12-lead electrocardiogram was recorded before the procedure and 90 minutes after the last balloon inflation in the infarct-related artery. Follow-up visits were scheduled at one, four, and eight months.
The data for all patients with primary end-point events were reviewed by an independent adjudication committee whose members were blinded to treatment assignments. Events adjudication was performed separately by two members, and in case of disagreement, the opinion of the third member was obtained and the final decision taken by consensus. The committee was also responsible for the adjudication of all clinical events according to the Academic Research Consortium.^18
Discrete data were summarized as frequencies, and comparisons were made with the likelihood-ratio χ^2 test or Fisher exact test. Continuous data were expressed as mean (SD) or median and interquartile range according to their distribution; comparisons were made with a one-way analysis of variance or the Kruskal-Wallis test.

[1] = At 8 mo, number of patients with event
[2] = At 30 d, number of patients with event

CCCCS(=O)(=O)N[C@@H](Cc1ccc(OCCCCC2CCNCC2)cc1)C(=O)O.Cl.O [Tirofiban Plus Uncoated Stent]
Clinically driven target-vessel revascularization (At 8 mo, Kaplan-Meier estimate): (9.1) % | Composite of death, reinfarction, or target-vessel revascularization (At 8 mo, Kaplan-Meier estimate): (12.9) % | Death (At 8 mo, Kaplan-Meier estimate): (3.8) % | Death or reinfarction (At 8 mo, Kaplan-Meier estimate): (6.5) % | Definite or probable or possible stent thrombosis (At 8 mo, Kaplan-Meier estimate): (4.3) % | Definite or probable stent thrombosis (At 8 mo, Kaplan-Meier estimate): (3.2) % | Definite stent thrombosis (At 8 mo, Kaplan-Meier estimate): (2.2) % | Possible stent thrombosis (At 8 mo, Kaplan-Meier estimate): (1.6) % | Reinfarction (At 8 mo, Kaplan-Meier estimate): (4.3) % | Clinically driven target-vessel revascularization [1]: 17 No. | Composite of death, reinfarction, or target-vessel revascularization [1]: 24 No. | Death [1]: 7 No. | Death or reinfarction [1]: 12 No. | Definite or probable or possible stent thrombosis [1]: 8 No. | Definite or probable stent thrombosis [1]: 6 No. | Definite stent thrombosis [1]: 4 No. | Possible stent thrombosis [1]: 3 No. | Reinfarction [1]: 8 No. | Clinically driven target-vessel revascularization (At 30 d, Kaplan-Meier estimate): (1.6) % | Composite of death, reinfarction, or target-vessel revascularization (At 30 d, Kaplan-Meier estimate): (3.8) % | Death (At 30 d, Kaplan-Meier estimate): (1.1) % | Death or reinfarction (At 30 d, Kaplan-Meier estimate): (3.8) % | Definite or probable stent thrombosis (At 30 d, Kaplan-Meier estimate): (2.7) % | Definite stent thrombosis (At 30 d, Kaplan-Meier estimate): (1.6) % | Probable stent thrombosis (At 30 d, Kaplan-Meier estimate): (1.1) % | Reinfarction (At 30 d, Kaplan-Meier estimate): (2.7) % | Clinically driven target-vessel revascularization [2]: 3 No. | Composite of death, reinfarction, or target-vessel revascularization [2]: 7 No. | Death [2]: 2 No. | Death or reinfarction [2]: 7 No. | Definite or probable stent thrombosis [2]: 5 No. | Definite stent thrombosis [2]: 3 No. | Probable stent thrombosis [2]: 2 No. | Reinfarction [2]: 5 No.
